# Measurements as given in PubChem BioAssay AID504313 (Emory University Molecular Libraries Screening Center, 2011).
# pIC50: −log10 of the molar value. Activity calls are given as the source filed them. No rule for the calls is given here.
# Target: X-box-binding protein 1 (Homo sapiens) (UniProt P17861)
# Assay: XBP1 reporter suppression in cells – counter-screen, dose response (AID 504313);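 also: CHO cells carrying an XBP1 reporter stimulated with tunicamycin; potency is for inhibition of the tunicamycin-induced reporter signal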
# Conditions: XBP1 reporter cell assay, percent of control
SMILES,IC50,pIC50
O=c1[nH]c(=O)n(Cc2ccco2)c2c1C(C(F)(F)F)(C(F)(F)F)N=C(c1ccc(F)cc1)N2,> 10 µM (inactive),
COc1ccc(NC(=O)c2cc(-c3cc(C)cc(C)c3O)n[nH]2)cc1Cl,> 10 µM (inactive),
CC(C)(C)c1ccc(S(=O)(=O)NCC(=O)Nc2sc3c(c2C(N)=O)CCCC3)cc1,> 10 µM (inactive),
CC1CN(S(=O)(=O)c2ccc(C(=O)Nc3nc(-c4cc5ccccc5o4)cs3)cc2)CC(C)O1 (stereo unspecified),> 10 µM (inactive),
CCOc1cc(/C=C2/C(=O)ON=C2C)ccc1OCc1ccc(F)cc1,> 10 µM (inactive),
COC(=O)C[C@]1(C(=O)OC)CN(C#N)N(c2ccc(Cl)cc2)C12c1ccccc1-c1ccccc12,,5.36
CCOC(=O)CN1C(c2ccc(O)cc2)Nc2ccc(Br)cc2C1c1ccccc1 (stereo unspecified),> 10 µM (inactive),
Nc1ccc2c(c1)C(=O)C(=O)c1ccccc1-2,inactive,
FC(F)(F)c1cc(-c2cccs2)nc(-n2cc(Br)cn2)n1,> 10 µM (inactive),
CC1CCC(C(C)C)C(OCC(O)CN2CCN(Cc3ccccc3)CC2)C1 (stereo unspecified),> 10 µM (inactive),
S=C(NCCc1ccc(Cl)cc1)Nc1ccc(Cl)cc1Cl,> 10 µM (inactive),
CN1/C(=C/C(=O)c2nc(S(C)(=O)=O)ncc2Cl)C(C)(C)c2ccccc21,inactive,
CC(C)Oc1ccc(CNC(=S)N/N=C/c2ccc([N+](=O)[O-])cc2)cc1,> 10 µM (inactive),
CN(C)c1ccc(/C=C2\SC(=O)N(CCc3nnc(N)s3)C2=O)cc1,inactive,
Clc1ccc2c(N/N=C/c3ccc(Br)cc3)ccnc2c1,> 10 µM (inactive),
OC(c1cccc(OCc2ccccc2)c1)c1nnc(-c2ccccc2)o1 (stereo unspecified),> 10 µM (inactive),
O=C(Nc1ccc(C(O)(C(F)(F)F)C(F)(F)F)cc1)c1ccc(Cl)c([N+](=O)[O-])c1,inactive,
CCCCNS(=O)(=O)c1ccc2nc(-c3cccnc3)cc(C(=O)NC3CCCC3)c2c1,> 10 µM (inactive),
CCCCCCN=C(CC)c1c(O)n(CCCC)c(=O)[nH]c1=O,inactive,
CCOC(=O)C1=C(c2ccccc2)O/C(=C(/C#N)C(F)(F)F)S1,> 10 µM (inactive),
C/C(=N\NC(=O)COc1ccc(C(C)(C)C)cc1)c1ccc(N2CCOCC2)cc1,inactive,
Cc1cc(C2=NNC(=NC3CC3)SC2)c(C)n1-c1ccccc1,< 0.16 µM (inactive),
CC(C)=NOc1cc(NC(=O)CCl)cc([N+](=O)[O-])c1,inactive,
Cc1nnc(NC(=O)c2sc3nc(-c4cccs4)cc(C(F)(F)F)c3c2N)s1,inactive,

SMILES,IC50,pIC50
O=C(CCl)N1CCN2C(=O)c3ccccc3C12c1ccc(Cl)cc1 (stereo unspecified),inactive,
O=Nc1ccc(O)c2ncccc12,,5.29
Cc1ccc(/C=C2\SC(=S)N(CCCC(=O)Nc3ccccn3)C2=O)cc1,,> 6.80
NC(=S)n1[nH]c(-c2ccc([N+](=O)[O-])cc2)c(N=Nc2cccc([N+](=O)[O-])c2)c1=O,inactive,
O=C1N(c2ccccc2)C[C@@H]2C[C@@H](c3cccs3)N3CCC[C@@]123,,5.55
CC(C)(C)C(=O)Cn1ncc(Br)c(Br)c1=O,> 10 µM (inactive),
Nc1c(S(=O)(=O)c2ccccc2)c2nc3ccccc3nc2n1/N=C/c1cccc(O)c1,> 10 µM (inactive),
COc1cccc(N2CCN(c3ncnc4c3[nH]c3ccccc34)CC2C)c1 (stereo unspecified),inactive,
O=S(=O)(Nc1ccccc1)c1ccc(Oc2ncc(C(F)(F)F)cc2Cl)cc1,,5.67
O=C(NCc1nc(-c2ccc(C(F)(F)F)cc2)no1)Nc1ccc(OC(F)(F)F)cc1,,5.37
O=C(/C=C/c1cccc([N+](=O)[O-])c1)n1cnc2ccccc21,inactive,
OC(CNCCc1ccc(C(F)(F)F)cc1)COc1cccc2ccccc12 (stereo unspecified),< 0.16 µM (inactive),
O=C(COc1ccc(Cl)cc1Cl)Nc1ccccn1,inactive,
C/C(=N\N=C1\NC(=O)C(CC(=O)Nc2ccc(C)c(Cl)c2)S1)C(C)(C)C (stereo unspecified),,5.30
CCn1c(C)nc2cc(-c3nnc(-c4c(-c5ccccc5)noc4C)o3)ccc21,> 10 µM (inactive),
CCCc1cc(=O)[nH]c(Nc2ccc(N3CCCCC3)cc2)n1,> 10 µM (inactive),
Cc1ccc(CNCC(O)(c2ccccc2)c2ccc(Cl)cc2)cc1 (stereo unspecified),inactive,
CCc1ccc(C(=O)/C=C/c2ccc([N+](=O)[O-])o2)cc1,> 10 µM (inactive),
COc1ccccc1C(=O)NC(=Nc1nc2ccccc2o1)NC(=O)c1ccccc1OC,inactive,
Cc1cc(C(=O)N/N=C/c2ccc(-c3cccc(Cl)c3Cl)o2)n[nH]1,> 10 µM (inactive),
O/N=C(\c1ccc(Cl)cc1Cl)c1ncc(C(F)(F)F)cc1Cl,,5.22
O=C(Nc1ccccc1)Nc1cc(OCC(F)(F)F)cc(OCC(F)(F)F)c1,,5.40
Cc1cc(C)c(S(=O)(=O)NCCn2c(C)cc3ccccc32)c(C)c1,> 10 µM (inactive),
Cc1cc(/C=N/n2cnnc2)c(C)n1-c1ccc(OCc2ccc(F)cc2)cc1,inactive,

SMILES,IC50,pIC50
Cc1ccc(NC(=O)c2nc[nH]c2C(=O)N[C@@H](C)C(=O)OC(C)(C)C)cc1,,5.38
CCC(C)c1ccc(O)c(NC(=O)c2cncc(Br)c2)c1 (stereo unspecified),inactive,
CC1=NNC(=O)/C1=C\c1cn(-c2ccccc2)nc1-c1ccc(F)cc1,inactive,
COc1ccc(N2C(=O)CC(Sc3nnnn3-c3ccc(F)cc3)C2=O)cc1 (stereo unspecified),> 10 µM (inactive),
C=CCOC(=O)C1=C(C)NC(C)=C(C(=O)OCC=C)C1/C=C/c1ccccc1,inactive,
COc1ccc(-c2nn(-c3ccccc3)cc2/C=N/NC(=O)c2ccc(Br)o2)cc1,inactive,
Cc1cc(-c2n[nH]c(=S)n2/N=C/C(Br)=C/c2ccccc2)n[nH]1,inactive,
N#Cc1nccnc1S(=O)(=O)c1cccs1,inactive,
Cc1ccc(OCC(=O)N2N=C(C(F)(F)F)CC2(O)C(C)(C)C)cc1C (stereo unspecified),inactive,
Cc1nn(C(C)(C)C)c(C)c1/C=N/OC(=O)Nc1ccc(Cl)cc1,,> 6.80
Cc1cccnc1NC(=O)c1c(O)c2ccccc2n(C)c1=O,inactive,
Cc1ccc(NC2=C/C(=N\S(=O)(=O)c3cccs3)c3ccccc3C2=O)c(C)c1,,6.26
CCOc1ccc(/C=C/C2=Cc3c(sc(NC(=O)CSc4n[nH]c(N)n4)c3C#N)C(C)(C)C2)cc1,> 10 µM (inactive),
COc1cc(OC)cc(-c2nc3ccccc3c(=O)n2OC(=O)c2ccc(Br)cc2)c1,> 10 µM (inactive),
CCCNC(=O)c1nnsc1S(=O)c1ccc(Cl)cc1 (stereo unspecified),inactive,
O=[N+]([O-])c1ccc(COc2ccc(-c3[nH]ncc3-c3ccccc3)c(O)c2)cc1,> 10 µM (inactive),
CC1=C(C)/C(=N\OS(=O)(=O)c2ccccc2)C=CC1=O,,5.54
Cc1nn(Cc2c(Cl)cccc2Cl)c(C)c1NC(=O)c1cc(C(C)C)on1,> 10 µM (inactive),
Cc1sc(NC(=O)c2cccc([N+](=O)[O-])c2)c(C(N)=O)c1-c1ccc(C(C)(C)C)cc1,,5.39
CCCCn1c(/N=C/c2c[nH]c3ccccc23)nc2ccccc21,> 10 µM (inactive),
CCCOc1ccc(Cc2c(Cl)nc(SC)nc2NC)cc1,> 10 µM (inactive),
COc1ccc2nc(Nc3nc(CSc4nc5ccccc5[nH]4)cc(=O)[nH]3)nc(C)c2c1,> 10 µM (inactive),
O=C1C(=C2SCCCS2)CC/C1=C\c1ccc(F)cc1,,5.50
